Measured values as given in ChEMBL document CHEMBL4819050, “Discovery of a novel series of guanidinebenzoates as gut-restricted enteropeptidase and trypsin dual inhibitors for the treatment of metabolic syndrome” (Bioorg Med Chem Lett, 2021).

Experiments:
Bos taurus [1] = species on record: Bos taurus; assay: Inhibition of bovine trypsin assessed as protease activity using D-CHA-AR-AMC as substrate at 0.1 uM by fluorescence assay relative to control; design: scale not given: the % may be the effect or the level left
[2] = target: Enteropeptidase (Homo sapiens) (UniProt P98073); assay: Inhibition of full length recombinant human EP expressed in CHO cells assessed as protease activity using […] as substrate at 10 uM by fluorescence assay relative to control; design: scale not given: the % may be the effect or the level left
[3] = target: Enteropeptidase (Homo sapiens) (UniProt P98073); assay: Inhibition of full length recombinant human EP expressed in CHO cells assessed as protease activity using […] as substrate at 1 uM by fluorescence assay relative to control; design: scale not given: the % may be the effect or the level left
Bos taurus [4] = species on record: Bos taurus; assay: Inhibition of bovine trypsin assessed as protease activity using D-CHA-AR-AMC as substrate at 10 uM by fluorescence assay relative to control; design: scale not given: the % may be the effect or the level left
Bos taurus [5] = species on record: Bos taurus; assay: Inhibition of bovine trypsin assessed as protease activity using D-CHA-AR-AMC as substrate at 1 uM by fluorescence assay relative to control; design: scale not given: the % may be the effect or the level left
[6] = target: Enteropeptidase (Homo sapiens) (UniProt P98073); assay: Inhibition of full length recombinant human EP expressed in CHO cells assessed as protease activity using […] as substrate at 0.1 uM by fluorescence assay relative to control; design: scale not given: the % may be the effect or the level left
Bos taurus [7] = species on record: Bos taurus; assay: Inhibition of bovine trypsin assessed as ratio of Kinact/Kiapp
[8] = target: Enteropeptidase (Homo sapiens) (UniProt P98073); assay: Inhibition of full length recombinant human EP expressed in CHO cells assessed as ratio of Kinact/Kiapp; assay type: cell-based
[9] = Apparent permeability from apical to basolateral side in dog MDCK cells; assay type: ADME, cell-based, Canis lupus familiaris

Chain of Enteropeptidase (Homo sapiens) (P98073 2-784 limits assumed): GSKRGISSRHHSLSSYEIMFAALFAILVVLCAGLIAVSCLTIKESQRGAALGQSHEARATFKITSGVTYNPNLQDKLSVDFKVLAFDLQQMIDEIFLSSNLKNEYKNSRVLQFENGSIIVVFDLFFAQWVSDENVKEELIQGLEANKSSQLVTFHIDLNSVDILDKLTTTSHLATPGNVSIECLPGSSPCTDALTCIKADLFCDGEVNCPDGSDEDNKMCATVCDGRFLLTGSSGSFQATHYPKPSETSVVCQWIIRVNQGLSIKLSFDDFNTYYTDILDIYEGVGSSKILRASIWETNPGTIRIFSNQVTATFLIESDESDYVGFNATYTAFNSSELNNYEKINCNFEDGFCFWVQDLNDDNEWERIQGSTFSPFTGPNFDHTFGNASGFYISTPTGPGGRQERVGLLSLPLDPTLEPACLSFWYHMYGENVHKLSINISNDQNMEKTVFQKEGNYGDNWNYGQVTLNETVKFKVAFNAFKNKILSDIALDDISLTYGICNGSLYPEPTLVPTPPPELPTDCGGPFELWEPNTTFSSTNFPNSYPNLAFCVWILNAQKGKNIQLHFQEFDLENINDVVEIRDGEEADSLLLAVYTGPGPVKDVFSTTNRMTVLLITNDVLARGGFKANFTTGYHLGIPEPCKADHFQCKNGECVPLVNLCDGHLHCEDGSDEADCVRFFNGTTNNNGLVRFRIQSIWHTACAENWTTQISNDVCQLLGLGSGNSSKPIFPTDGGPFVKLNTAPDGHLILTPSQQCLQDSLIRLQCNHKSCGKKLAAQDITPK
Chain of Enteropeptidase (Homo sapiens) (P98073 785-1019 limits assumed): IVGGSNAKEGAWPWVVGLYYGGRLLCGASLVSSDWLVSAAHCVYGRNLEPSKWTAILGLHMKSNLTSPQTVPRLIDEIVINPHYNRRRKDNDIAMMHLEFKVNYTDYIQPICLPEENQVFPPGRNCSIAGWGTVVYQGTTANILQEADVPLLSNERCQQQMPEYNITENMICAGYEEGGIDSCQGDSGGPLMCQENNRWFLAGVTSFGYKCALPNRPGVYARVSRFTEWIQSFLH

| SMILES | Activity (Bos taurus [1]) | Activity [2] | Activity [3] | Activity (Bos taurus [4]) | Activity (Bos taurus [5]) | Activity [6] | Ratio (Bos taurus [7]) | Ratio [8] | Papp A→B [9] |
| --- | --- | --- | --- | --- | --- | --- | --- | --- | --- |
| C/C(=N\O)Nc1ccc(C(=O)Oc2ccc(CC(=O)O)n3ncnc23)cc1 | -8.04% | -10.8% | -10.1% | 10.1% | -0.45% | -10.7% | – | – | – |
| N=C(N)Nc1ccc(C(=O)Oc2ccc(CC(=O)O)n3ccnc23)cc1 | 96.3% | 100% | 100% | 101% | 101% | 101% | 111000 M⁻¹ s⁻¹ | 210000 M⁻¹ s⁻¹ | 1.48 ×10⁻⁶ cm/s |
| N=C(N)NCc1ccc(C(=O)Oc2ccc(CC(=O)O)n3ncnc23)cc1 | 3.87% | 83.6% | 43.7% | 72.5% | 19.9% | 10.9% | – | – | – |
| N=C(N)Nc1ccc(C(=O)Oc2ccc(CC(=O)O)n3ncnc23)c2ccoc12 | 14.6% | 100% | 98.8% | 99.9% | 80% | 36.3% | – | – | – |
| N=C1NCCN1c1ccc(C(=O)Oc2ccc(CC(=O)O)n3ncnc23)cc1 | 10.9% | 93.2% | 57.9% | 93% | 58.3% | 10.5% | – | – | – |
| N=C(N)Nc1ccc(C(=O)Oc2ccc(CC(=O)O)n3ncnc23)c(Cl)c1 | 43.5% | 100% | 100% | 99.9% | 97.6% | 81.2% | – | – | – |
| CNC(=N)c1ccc(C(=O)Oc2ccc(CC(=O)O)n3ncnc23)cc1 | 5.66% | 52.3% | 11.3% | 66.5% | 8.66% | -0.79% | – | – | – |
| N#CNC(=N)c1ccc(C(=O)Oc2ccc(CC(=O)O)n3ncnc23)cc1 | -2.06% | 13.6% | 1.9% | 35.8% | 2.46% | -1.6% | – | – | – |
| N=C(N)Nc1ccc(C(=O)Oc2ccc(CC(=O)O)n3ncnc23)c(F)c1 | 97.2% | 100% | 100% | 100% | 99.7% | 99.4% | – | – | – |
| O=C(O)Cc1ccc(OC(=O)c2ccc(NC3=NCCN3)cc2)c2ncnn12 | 0.21% | -2.75% | -2.47% | -7.45% | -2.97% | -0.28% | – | – | – |
| Cc1cc(NC(=N)N)ccc1C(=O)Oc1ccc(CC(=O)O)n2ncnc12 | 9.45% | 101% | 59.9% | 99.7% | 49% | 10.3% | – | – | – |
| N=C(N)Nc1ccc(C(=O)Oc2ccc(CC(=O)NCC(=O)O)n3ncnc23)cc1 | 99.7% | 100% | 101% | 100% | 100% | 48.1% | – | – | 1.03 ×10⁻⁶ cm/s |
| CS(=O)(=O)NC(=O)Cc1ccc(OC(=O)c2ccc(NC(=N)N)cc2)c2ncnn12 | 98.8% | 100% | 100% | 99.9% | 100% | 101% | 163000 M⁻¹ s⁻¹ | 181000 M⁻¹ s⁻¹ | 0.51 ×10⁻⁶ cm/s |
| N=C(N)Nc1ccc(C(=O)Oc2cc(CCC(=O)O)cn3ncnc23)cc1 | 99.2% | 101% | 103% | 100% | 100% | 45.2% | – | – | 1.12 ×10⁻⁶ cm/s |
| CC(=N)Nc1ccc(C(=O)Oc2ccc(CC(=O)O)n3ncnc23)cc1 | 11.5% | 100% | 99.6% | 99.7% | 68% | 47.8% | – | – | – |
| N#Cc1cc(C(=O)Oc2ccc(CC(=O)O)n3ncnc23)ccc1NC(=N)N | 0.95% | 32.1% | -6.26% | 29.9% | 12.3% | -3.01% | – | – | – |
| C/N=C(\NC)Nc1ccc(C(=O)Oc2ccc(CC(=O)O)n3ncnc23)cc1 | -1.72% | 12.6% | 1.32% | 9.42% | 0.59% | 1.35% | – | – | – |
| Cc1cc(C(=O)Oc2ccc(CC(=O)O)n3ncnc23)ccc1NC(=N)N | 0% | 36.7% | 6.3% | 35.5% | 8.4% | 1.3% | – | – | – |
| N=C(N)Nc1ccc(C(=O)Oc2cc(CC(=O)O)cn3ncnc23)cc1 | 81.7% | 101% | 58.8% | 100% | 100% | 13.1% | – | – | – |
| CNC(=N)Nc1ccc(C(=O)Oc2ccc(CC(=O)O)n3ncnc23)cc1 | 9.6% | 97.9% | 80.1% | 97.7% | 57.1% | 15.3% | – | – | – |
| N=C(N)Nc1ccc(C(=O)Oc2ccc(CCC(=O)O)n3ncnc23)cc1 | 99.8% | 100% | 101% | 100% | 100% | 35% | – | – | – |
| N=C(N)Nc1ccc(C(=O)Oc2ccc(CC(=O)O)n3ncnc23)s1 | 93.8% | 100% | 100% | 99.8% | 99.9% | 82% | – | – | – |
| COc1cc(C(=O)Oc2ccc(CC(=O)O)n3ncnc23)ccc1NC(=N)N | 13.8% | 101% | 87.1% | 99.9% | 72.4% | 20.8% | – | – | – |

Next, values leading:

| Activity (Bos taurus [1]) | Activity [2] | Activity [3] | Activity (Bos taurus [4]) | Activity (Bos taurus [5]) | Activity [6] | Ratio (Bos taurus [7]) | Ratio [8] | Papp A→B [9] | SMILES |
| --- | --- | --- | --- | --- | --- | --- | --- | --- | --- |
| -3.11% | 34% | 9.05% | 18.2% | -3.33% | 2.43% | – | – | – | CONC(=N)c1ccc(C(=O)Oc2ccc(CC(=O)O)n3ncnc23)cc1 |
| 87.6% | 100% | 100% | 100% | 100% | 96.8% | 69700 M⁻¹ s⁻¹ | 72800 M⁻¹ s⁻¹ | – | N=C(N)Nc1ccc(C(=O)Oc2ccc(CC(=O)O)n3ncnc23)cc1F |
| 96.5% | 100% | 99.5% | 100% | 100% | 92.1% | – | – | – | N=C(N)Nc1ncc(C(=O)Oc2ccc(CC(=O)O)n3ncnc23)cn1 |
| 12.4% | 101% | 92.1% | 100% | 73.1% | 34.3% | – | – | – | N=C(N)Nc1ccc(C(=O)Oc2ccc(CC(=O)O)n3ncnc23)cc1O |
| 6.34% | 101% | 84.4% | 99.8% | 56.6% | 18.2% | – | – | – | N=C(N)Nc1ccc(C(=O)Oc2ccc(CC(=O)O)n3ncnc23)cc1Cl |
| 31.4% | 99.3% | 93.8% | 98.9% | 89.2% | 40.5% | – | – | – | CN(C(=N)N)c1ccc(C(=O)Oc2ccc(CC(=O)O)n3ncnc23)cc1 |
| -0.24% | 6.8% | -6.7% | 18.6% | 1.21% | -11.2% | – | – | – | N=C(N)Nc1cccc(C(=O)Oc2ccc(CC(=O)O)n3ncnc23)c1 |
| -0.36% | 58.6% | 16.9% | 21.6% | 2.66% | 4.69% | – | – | – | O=C(O)Cc1ccc(OC(=O)c2ccc(C3=NCCN3)cc2)c2ncnn12 |
| 89.3% | 100% | 101% | 100% | 100% | 89.7% | – | – | 1.45 ×10⁻⁶ cm/s | N=C(N)Nc1ccc(C(=O)Oc2ccc(Cc3nn[nH]n3)n3ncnc23)cc1 |
| 2.91% | -10.4% | -2% | -7.38% | -3.49% | 1.03% | – | – | – | O=C(O)Cc1ccc(OC(=O)c2ccc(NC3=NCCCN3)cc2)c2ncnn12 |
| 1.62% | 51.8% | 12.2% | 25.5% | 2.74% | 0.5% | – | – | – | N=C(NN)c1ccc(C(=O)Oc2ccc(CC(=O)O)n3ncnc23)cc1 |
| 2.31% | 98.9% | 38.5% | 88.7% | 16.6% | 4.14% | – | – | – | N=C(N)Nc1ccc(C(=O)Oc2ccc(CC(=O)O)n3ncnc23)c(C(F)(F)F)c1 |
| 99.8% | 100% | 101% | 100% | 100% | 73% | – | – | – | N=C(N)Nc1ccc(C(=O)Oc2ccc(C3OC(=O)NC3=O)n3ncnc23)cc1 (centres undefined) |
| 61% | 100% | 95.1% | 100% | 100% | 27.6% | – | 24400 M⁻¹ s⁻¹ | – | N=C(N)Nc1ccc(C(=O)Oc2ccc(CCC(=O)O)n3ccnc23)cc1 |
| 52.9% | 99.8% | 98.5% | 100% | 99.6% | 63% | 59400 M⁻¹ s⁻¹ | 52800 M⁻¹ s⁻¹ | – | C#CCOCCOCC#Cc1ccc(CC(=O)O)n2ncnc12 |
| 99.3% | 100% | 100% | 100% | 100% | 81.2% | – | – | 0.75 ×10⁻⁶ cm/s | N=C(N)Nc1ccc(C(=O)Oc2ccc(CC(=O)N[C@@H](CC(=O)O)C(=O)O)n3ccnc23)cc1 |
